Our source for the Ki values is patent US9828339B2, “Biphenyl derivatives and methods for preparing same” (DONG-A ST CO., LTD, priority 2013, dated 2017).

In test [1] the target is T1, human muscarinic M3 receptor (Homo sapiens (Human), UniProt P20309). Nature of the test: Antagonism assay on human muscarinic M3 receptor (carbachol-induced intracellular calcium, FLIPR Calcium 5, transfected Cos-7 cells). The test is classed as cell-based. The following applies: functional inhibitory constant; carbachol-induced intracellular calcium in Cos-7 cells transfected with human M3 receptor. Here is the method: [Experimental Example 2] Antagonism Assay on Human Muscarinic M3 Receptor
The antagonism assay for various compounds of the present invention was conducted on antagonism to human M3 receptor in Cos-7 cells that was transfected with plasmid coding human muscarinic M3 receptor. Test compounds in various concentrations were pre-treated to the cells for 3 minutes, and then the changes of intracellular calcium were measured after treating the same with carbachol (i.e. muscarinic receptor agonist). The FLIPR® Calcium 5 assay (Molecular Devices) and Flex3 device (Molecular Devices) were used to measure concentration of calcium. Amounts of calcium before and after carbachol treatment were set as 0% and 100% respectively. Inhibition rates (%) by the compounds for increase in intracellular calcium by carbachol were calculated. The antagonistic potency of the test compounds on human muscarinic M3 receptor was calculated as the functional inhibitory constant (Ki), which can be calculated from concentration (IC50) of compound inhibiting 50% of activity of carbachol according to Cheng and Prusoff equation.

The target of test [2] is T1, human muscarinic M3 receptor. In words: Binding assay on human muscarinic M3 receptor ([3H]-methyl scopolamine displacement). The following applies: membranes overexpressing human M3 receptor, Ki from IC50 by Cheng-Prusoff, read-out: Binding Affinity to M3 Receptor, Ki. The gist of the method: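 Displacement of [3H]-methyl scopolamine from membranes overexpressing human M3, in Tris-HCl, 25 °C, 120 min; filter-bound radioactivity counted. Nonspecific binding with 5 μM atropine; Ki from IC50 via Cheng-Prusoff.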

T1 sequence (P20309 whole entry): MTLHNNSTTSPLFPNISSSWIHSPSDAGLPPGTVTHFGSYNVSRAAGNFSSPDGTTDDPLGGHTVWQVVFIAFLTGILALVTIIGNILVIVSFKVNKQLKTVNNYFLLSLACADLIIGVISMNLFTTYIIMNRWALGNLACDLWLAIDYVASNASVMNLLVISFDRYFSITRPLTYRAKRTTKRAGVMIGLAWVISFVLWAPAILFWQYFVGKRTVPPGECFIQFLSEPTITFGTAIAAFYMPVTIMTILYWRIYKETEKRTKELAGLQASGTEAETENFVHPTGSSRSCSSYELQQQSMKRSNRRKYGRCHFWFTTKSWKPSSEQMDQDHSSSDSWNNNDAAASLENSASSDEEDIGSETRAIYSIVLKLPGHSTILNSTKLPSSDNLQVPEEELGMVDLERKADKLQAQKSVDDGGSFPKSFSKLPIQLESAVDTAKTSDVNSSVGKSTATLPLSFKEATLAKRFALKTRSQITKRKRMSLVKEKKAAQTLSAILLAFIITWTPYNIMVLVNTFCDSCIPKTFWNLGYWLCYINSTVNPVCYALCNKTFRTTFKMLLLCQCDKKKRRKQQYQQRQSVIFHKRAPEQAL

Regarding `CN1CCCC1CCOC(=O)Nc1ccc(F)cc1-c1cc(Cl)c(F)c(Cl)c1` (centres unmarked) [Example 56, 2-(1-methylpyrrolidin-2-yl)ethyl(3′,5′-dichloro-4′,5-difluoro-[1,1′-biphenyl]-2-yl)carbamate], the figures for the Ki in test [1] and in test [2] were 10 nM and 12.5 nM, respectively.

Take `CN1CCCC1CCOC(=O)Nc1ccc(F)cc1-c1ccc(O)c(Cl)c1` (centres unmarked) [Example 58, 2-(1-methylpyrrolidin-2-yl)ethyl(3′-chloro-5-fluoro-4′-hydroxy-[1,1′-biphenyl]-2-yl)carbamate]: the results for the inhibitory constant (Ki) in test [1] and in test [2] were 4.7 nM and 26.3 nM, respectively.

As to `CN1CCCC1CCOC(=O)Nc1ccc(Cl)cc1-c1cccc(F)c1` (centres unmarked) [Example 67, 2-(1-Methylpyrrolidin-2-yl)ethyl(5-chloro-3′-fluoro-[1,1′-biphenyl]-2-yl)carbamate], the inhibitory constant (Ki) came out at 11.9 nM in test [1] and 16.3 nM in test [2].

With `CN1CCCC1CCOC(=O)Nc1ccc(Cl)cc1-c1ccc(F)cc1` (centres unmarked) [Example 68, 2-(1-Methylpyrrolidin-2-yl)ethyl(5-chloro-4′-fluoro-[1,1′-biphenyl]-2-yl)carbamate], the Ki in test [1] and in test [2] was 13.2 nM in each case.

`CN1CCCC1CCOC(=O)Nc1ccc(O)cc1-c1ccc(F)c(Cl)c1` (centres unmarked) [Example 77, 2-(1-methylpyrrolidin-2-yl)ethyl (3′-chloro-4′-fluoro-5-hydroxy-[1,1′-biphenyl]-2-yl)carbamate]: the figures for the inhibition constant Ki in test [1] and in test [2] were 10 nM and 22 nM, respectively.

Take `CN1CC[C@@H](COC(=O)Nc2ccccc2-c2ccc(F)cc2)C1` [Example 114, (R)-(1-methylpyrrolidin-3-yl)methyl(4′-fluoro-[1,1′-biphenyl]-2-yl)carbamate]: the Ki in test [1] was determined as 0.58 nM; in test [2] it was 4.23 nM.

Consider `CN1CC[C@@H](COC(=O)Nc2ccccc2-c2ccc(F)c(F)c2)C1` [Example 115, (R)-(1-methylpyrrolidin-3-yl)methyl(3′,4′-difluoro-[1,1′-biphenyl]-2-yl)carbamate], for which the figures for the inhibition constant (Ki) in test [1] and in test [2] were 0.32 nM and 7.49 nM, respectively.

On to `CN1CC[C@H](COC(=O)Nc2ccccc2-c2cccc(F)c2)C1` [Example 116, (S)-(1-methylpyrrolidin-3-yl)-methyl (3′-fluoro-[1,1′-biphenyl]-2-yl)carbamate], for which the figures for the Ki in test [1] and in test [2] were 1.21 nM and 12.6 nM, respectively.

Consider `CN1CC[C@H](COC(=O)Nc2ccccc2-c2cccc(Cl)c2)C1` [Example 118, (S)-(1-methylpyrrolidin-3-yl)methyl(3′-chloro-[1,1′-biphenyl]-2-yl)carbamate], for which the Ki in test [1] was found to be 0.77 nM; in test [2] it was 2.42 nM.

As to `CN1CC[C@H](COC(=O)Nc2ccccc2-c2cc(F)cc(Cl)c2)C1` [Example 120, (S)-(1-methylpyrrolidin-3-yl)methyl(3′-chloro-5′-fluoro-[1,1′-biphenyl]-2-yl)carbamate], the Ki is 1.03 nM in test [1] and 9.7 nM in test [2].

Consider `CN1CC[C@H](COC(=O)Nc2ccc(F)cc2-c2cc(Cl)cc(Cl)c2)C1` [Example 126, (S)-(1-methylpyrrolidin-3-yl)methyl(3′,5′-dichloro-5-fluoro-[1,1′-biphenyl]-2-yl)carbamate], for which the Ki amounted to 17.5 nM in test [1] and 24.8 nM in test [2].

Turning to `CN1CC[C@@H](COC(=O)Nc2ccccc2-c2ccc(Cl)c(Cl)c2)C1` [Example 130, (R)-(1-methylpyrrolidin-3-yl)-methyl (3′,4′-dichloro-[1,1′-biphenyl]-2-yl)carbamate], the Ki in test [1] came out at 1.14 nM; in test [2] it was 2.1 nM.

In the case of `CN1CC[C@@H](COC(=O)Nc2ccccc2-c2cc(F)cc(Cl)c2)C1` [Example 132, (R)-(1-methylpyrrolidin-3-yl)methyl(3′-chloro-5′-fluoro-[1,1′-biphenyl]-2-yl)carbamate], the inhibitory constant (Ki) in test [1] came to 0.75 nM; in test [2], 4.64 nM.

Consider `CN1CC[C@@H](COC(=O)Nc2ccc(F)cc2-c2cc(Cl)cc(Cl)c2)C1` [Example 135, (R)-(1-methylpyrrolidin-3-yl)methyl(3′,5′-dichloro-5-fluoro-[1,1′-biphenyl]-2-yl)carbamate], for which the Ki in test [1] came to 16.5 nM; in test [2], 24.1 nM.

Consider `CN1CC[C@@H](COC(=O)Nc2ccc(F)cc2-c2ccc(F)cc2)C1` [Example 141, (R)-(1-methylpyrrolidin-3-yl)methyl(4′,5-difluoro-[1,1′-biphenyl]-2-yl)carbamate], for which the results for the Ki in test [1] and in test [2] were 0.35 nM and 7.57 nM, respectively.

As to `CN1CC[C@@H](COC(=O)Nc2ccc(F)cc2-c2ccccc2F)C1` [Example 144, (R)-(1-methylpyrrolidin-3-yl)methyl(2′,5-difluoro-[1,1′-biphenyl]-2-yl)carbamate], the Ki came to 1.42 nM in test [1] and 17.2 nM in test [2].

On to `CN1CCC[C@H]1COC(=O)Nc1ccccc1-c1cc(F)cc(Cl)c1` [Example 148, (S)-(1-methylpyrrolidin-2-yl)methyl(3′-chloro-5′-fluoro-[1,1′-biphenyl]-2-yl)carbamate], for which the Ki stood at 2.22 nM in test [1] and 10.2 nM in test [2].

Regarding `CN1CCC[C@H]1COC(=O)Nc1ccccc1-c1ccc(F)c(Cl)c1` [Example 149, (S)-(1-methylpyrrolidin-2-yl)methyl(3′-chloro-4′-fluoro-[1,1′-biphenyl]-2-yl)carbamate], the Ki in test [1] amounted to 0.1 nM; in test [2], 1.57 nM.

With `CC(C)N1CC[C@@H](COC(=O)Nc2ccccc2-c2ccc(F)c(Cl)c2)C1` [Example 151, (R)-(1-isopropylpyrrolidin-3-yl)-methyl (3′-chloro-4′-fluoro-[1,1′-biphenyl]-2-yl)carbamate], the Ki was 2.67 nM in test [1] and 14.9 nM in test [2].

Take `CN1CC[C@@H](COC(=O)Nc2ccccc2-c2ccccc2F)C1` [Example 156, (R)-(1-methylpyrrolidin-3-yl)methyl(2′-fluoro-[1,1′-biphenyl]-2-yl)carbamate]: the values for the Ki in test [1] and in test [2] were 1.15 nM and 10.6 nM, respectively.

For the compound `CN1CC[C@@H](COC(=O)Nc2ccccc2-c2ccc(F)cc2F)C1` [Example 157, (R)-(1-methylpyrrolidin-3-yl)methyl-(2′,4′-difluoro-[1,1′-biphenyl]-2-yl)carbamate], the inhibition constant Ki was determined as 3.25 nM in test [1] and 29.6 nM in test [2].

Consider `CN1CC[C@@H](COC(=O)Nc2ccccc2-c2cc(Cl)ccc2F)C1` [Example 159, (R)-(1-methylpyrrolidin-3-yl)methyl(3′-chloro-6′-fluoro-[1,1′-biphenyl]-2-yl)carbamate], for which the inhibition constant Ki was found to be 0.46 nM in test [1] and 5.13 nM in test [2].

Take `CN1CCCC1CCOC(=O)Nc1ccccc1-c1ccc(F)cc1F` (centres unmarked) [Example 183, 2-(1-Methylpyrrolidin-2-yl)ethyl (2′,4′-difluoro-[1,1′-biphenyl]-2-yl)carbamate]: the inhibitory constant (Ki) in test [1] stood at 2.57 nM; in test [2], 18.9 nM.

`CN1CCCC1CCOC(=O)Nc1ccccc1-c1cc(Cl)ccc1F` (centres unmarked) [Example 186, 2-(1-Methylpyrrolidin-2-yl)ethyl (5′-chloro-2′-fluoro-[1,1′-biphenyl]-2-yl)carbamate]: the Ki was found to be 0.34 nM in test [1] and 4.68 nM in test [2].

For the compound `CN1CCC[C@H]1COC(=O)Nc1ccccc1-c1ccccc1F` [Example 187, (S)-(1-methylpyrrolidin-2-yl)methyl(2′-fluoro-[1,1′-biphenyl]-2-yl)carbamate], the Ki was determined as 0.48 nM in test [1] and 10.7 nM in test [2].
